Source: patent US20240084002A1, “METHODS AND COMPOSITIONS UTILIZING IDO1-DEPENDENT VASCULARIZING CELLS FOR THE TREATMENT OF PATHOLOGICAL CONDITIONS INVOLVING NEOVASCULARIZATION” (LANKENAU INSTITUTE FOR MEDICAL RESEARCH, priority 2020, published 2024)
Where two headings read alike, the source gives them in different places.

Assays:
[1] = tested on: ATF4; assay: qPCR of IFNγ+LPS mediated induction of ATF4 in U937 and HL60 cells (ISR activation); format: cell-based, human; details: inhibitor 1 μM, 24 hr
Text: (§1) Quantitative real time PCR analysis.

[2] = tested on: IL6 gene expression; assay: qPCR of IFNγ+LPS mediated induction of IL6 gene expression in U937 and HL60 cells; format: cell-based, human; details: inhibitor 1 μM, 24 hr
Text: as §1

[3] = tested on: Gr-1+ CD11b^lo cells; assay: Matrigel plug assay, neovascular density; format: in vivo, mouse; details: plugs with WT Gr-1+ CD11b^lo cells in WT mice, 50 mg/kg oral gavage b.i.d. for the final 3 days, plugs resected at day 9
Method: Matrigel Plug Assay. To assess the in vivo neovascularizing capability of select immune cell populations isolated from 4T1 pulmonary metastases, 5×10^4-2×10^6 sorted cells were isolated (as indicated in the corresponding figure legends) by fluorescence-activated cell sorting (BD FACSAria III) into RPMI+10% FCS and put on ice. Immediately following sorting, isolated immune cell populations were suspended in 250 μl PBS and combined with 250 μl Matrigel (Corning® Cat# 356237) per plug on ice for in vivo injections. Plugs were established by subcutaneous injection in the dorsal region of recipient mice using an ice-cold syringe with a 21 gauge needle. […] After 9 days post injection, the matrigel plug was harvested and images recorded with either a Samsung Galaxy S6 or an iPhone X using the 2× lens with an additional 10× macro lens attachment (Moment).
For blood vessel quantification, the Matrigel plugs were blocked in OCT and cryosectioned using the tape transfer method ([…] per plug). Following sectioning, neovascularization was visualized under confocal microscope by fluorescence staining with rabbit anti-mouse for caveolin 1 and quantitatively analyzed using Adobe Photoshop as described above. Statistical Analysis. […] Significance for Kaplan-Meier survival curves was determined by 2-group log-rank test. […]

[4] = tested on: NOS2; assay: NOS2 staining of 4T1 lung metastases; format: in vivo, mouse; details: WT mice with 4T1 lung metastases, 50 mg/kg p.o. b.i.d. over 3 days
[5] = tested on: CHOP; assay: qPCR of IFNγ+LPS mediated induction of CHOP in U937 and HL60 cells (ISR activation); format: cell-based, human; details: inhibitor 1 μM, 24 hr
Text: as §1

[6] = tested on: 4T1 metastases; details: prior finding, reference (7); cited from earlier work
[7] = tested on: U937 and HL60 cells; details: human, 24 h, 1 μM
Method: (§2) Viability assay. Cell viability in U937 and HL60 cells was measured by LDI Cell CountEZ™ toxicity, proliferation and survival (TPS) assay kit (LDI1201™) as per the manufacturer's protocol. Both cell lines were plated at a density of 10,000 cells/ well of a 96 well plate in 100 μl DMEM medium with 10% FBS. […] Bortezomib (20 nM; LC Laboratories, Cat# B-1408) was used as positive control for inducing cellular apoptosis. Treated cells were incubated at 37° C. in a humidified CO2 incubator for 24 hrs. The TPS assay was then performed with cell viability assessed by reading absorbance at 412 nm in a microtiter plate reader.

[8] = tested on: IL6 gene expression; details: U937 and HL60 cells, previously shown, reference (9); cited from earlier work
[9] = target: T1, IDO1 (Homo sapiens, UniProt P14902); details: U937 and HL60 cells, previously shown, reference (9); cited from earlier work
T1 construct: cell culture media was analyzed for levels of kynurenine to assess IDO1 enzymatic activity; endogenous in cells; host or cells: U937 (ATCC CRL-1593.2) and HL60 (ATCC CCL-240), stimulated with IFNγ + LPS

[10] = tested on: U937 and HL60 cells; assay: Viability assay (LDI Cell CountEZ TPS assay kit); details: IFNγ+LPS, at the concentrations used (1 μM), 24 hrs
Method: as §2

[11] = target: T1, IDO1; assay: Kynurenine levels in supernatants of IFNγ+LPS treated U937 and HL60 cells (IDO1 activity); format: cell-based; details: inhibitor 1 μM, 24 hr
Method: Kynurenine assay. Levels of kynurenine in U937 and HL60 cell supernatants were measured using Ehrlich's reagent (p-dimethylamino-benzaldehyde). Following treatments, supernatants were collected and transferred to a V-bottom 96-well plate and mixed with 40 μL 50% (w/v) trichloroacetic acid (TCA; LabChem) to precipitate any protein. The plate was then incubated at 65° C. for 30 minutes followed by centrifugation at 1250×g for 10 minutes. Following centrifugation, 100 μL of clarified supernatant was transferred to a new flat-bottomed 96-well plate and mixed at equal volumes with 2% (w/v) Ehrlich's reagent in acetic acid. The resulting reaction was measured at 490 nm using a Synergy HT microtiter plate reader (Bio-Tek). Vitreous humor was collected from eyes of mice that underwent the OIR process. Levels of kynurenine were measured using the IDK® Kynurenin ELISA kit (Immundiagnostik AG, Bensheim, Germany) according to manufacturer's protocol. Additionally, levels of kynurenine were confirmed by high-performance liquid chromatography (HPLC) coupled to electrospray ionization liquid chromatography/ tandem mass spectroscopy (LC/MS-MS) as described (18).

[12] = tested on: CYP1A1; assay: qPCR of IFNγ+LPS mediated induction of CYP1A1 in U937 and HL60 cells (AHR activation); details: inhibitor 1 μM, 24 hr
Method: Cell culture. The 4T1 (mouse mammary carcinoma; ATCC Cat# CRL-2539) and U937 (human histiocytic lymphoma; ATCC Cat# CRL-1593.2) cell lines were cultured in DMEM supplemented with penicillin, streptomycin, 10% FBS and 55 μM β-mercaptaethanol. The HL60 (human promyelocytic leukemia; ATCC Cat# CCL-240) cell line was maintained in IMDM media supplemented with 10% FCS plus 55 μM β-mercaptaethanol, 2 mM glutamax (Life Technologies), and 50 μg/ml gentamicin. […] No mycoplasma testing was done on the U937 or HL60 cell lines. […] In vitro experiments were performed with U937 and HL60 cells maintained no longer than passage 6. […] At 24 hr mRNA was prepared from the treated cells for qPCR-based analysis of gene expression and cell culture media was analyzed for levels of kynurenine to assess IDO1 enzymatic activity.
Quantitative real time PCR analysis. […] Quantitative PCR (QPCR) reactions were run using the Fast Start Universal SYBR Green Mix (Roche Applied Science) with an Eppendorf Realplex 4 Mastercycler QPCR machine. Levels of mRNA expression detected with primers specific for Atf4, Chop Il6 and Cyp1a1 (Tables 1-3) were normalized to 18S mRNA levels and differences between treatment groups were analyzed using the δ-δ cycle threshold method.

T1 sequence (P14902 whole entry): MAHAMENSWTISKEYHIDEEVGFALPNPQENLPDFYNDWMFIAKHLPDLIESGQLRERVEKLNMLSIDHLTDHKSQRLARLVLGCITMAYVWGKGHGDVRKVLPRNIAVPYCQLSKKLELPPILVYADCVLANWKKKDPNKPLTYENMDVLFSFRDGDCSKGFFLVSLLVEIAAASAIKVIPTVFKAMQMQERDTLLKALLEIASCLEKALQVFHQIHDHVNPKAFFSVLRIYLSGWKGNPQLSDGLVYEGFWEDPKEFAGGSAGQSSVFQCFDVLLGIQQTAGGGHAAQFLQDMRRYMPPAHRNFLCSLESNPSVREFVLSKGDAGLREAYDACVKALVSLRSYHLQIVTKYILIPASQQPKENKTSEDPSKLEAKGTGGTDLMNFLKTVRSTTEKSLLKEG

| effect on the level of kynurenine produced [11] | Compound | effect on induction of ATF4 message [1] | effect on induction of CHOP message [5] | impact on cell viability [10] | effect on IL6 gene expression [2] | other results |
| --- | --- | --- | --- | --- | --- | --- |
|  | NS(=O)(=O)NCCNc1nonc1C(=NO)Nc1ccc(F)c(Br)c1 [Epacadostat] | effectively blocked | effectively blocked |  |  | reduction IL6 gene expression [2]: ≥ 99%; degree of neovascularization in Matrigel plugs [3]: decreased the degree of neovascularization promoted by CD11b^lo cells to a level quantifiably indistinguishable from CD11b^hi cells; NOS2 expression within lung metastases [4]: elicits NOS2 elevation; blood vessel formation within established 4T1 metastases [6]: reverses blood vessel formation; impact on cell viability [7]: Neither ISRIB, Epacadostat nor BAY-218 had a sufficient impact on cell viability |
|  | methylthiohydantoin-DL-tryptophan [MTH-Trp] |  |  |  |  | corresponding increase in IL6 [8]: could be blocked; IFNγ+LPS-mediated induction of IDO1 activity [9]: could be blocked |
| neither had a significant effect | O=C(COc1ccc(Cl)cc1)NC1CCC(NC(=O)COc2ccc(Cl)cc2)CC1 (stereo not drawn) [ISRIB] | blocked induction | blocked induction | Neither ISRIB, Epacadostat nor BAY-218 had a sufficient impact on cell viability | effectively blocked |  |
| neither had a significant effect | C[C@@H](CO)NC(=O)c1cc(-c2ccc(Cl)cc2)nn(-c2cccc(F)c2)c1=O [BAY-218] |  |  | Neither ISRIB, Epacadostat nor BAY-218 had a sufficient impact on cell viability | no significant effect | effect on induction of CYP1A1 message [12]: blocked induction of CYP1A1 |
